Literature values in publication PMC11101992 (Clinical and Translational Science, 2024).

Columns and labels:
[1] = tested on: IL‐1β release

In the case of `CS(=O)(=O)CCC#N` [dapansutrile], the “IL‐1β release reduction (in words)” value ([1]; healthy subjects and patients with gout flare) is given as “only partially reduced”.
In the case of `CN[C@@H]1COc2c(S(=O)(=O)NC(=O)Nc3c4c(cc5c3CCC5)CCC4)cnn2C1` [GDC‐2394], the “healthy subjects with rash” value (900 mg) is given as 22%.
In the case of `CN1CCC[C@]1(C)/C=C/S(=O)(=O)NC(=O)Nc1c2c(cc3c1CCC3)CCC2` [ZYIL1], the “drug‐related skin reactions (in words)” value (early clinical trials) is given as “did not yet report any drug‐related skin reactions” and the “IL‐1β release inhibition” value ([1]; healthy subjects) is given as greater than 90%.
